Earlier results, collected in US7186826B2, “Phosphorus-containing compounds and uses thereof” (ARIAD Gene Therapeutics, Inc., priority 2002, dated 2007).

Conditions: see WO 03/022807 and 99/15530

- biological half-life: shortened
SMILES: CO[C@H]1C[C@@H]2CC[C@@H](C)[C@@](O)(O2)C(=O)C(=O)N2CCCC[C@H]2C(=O)O[C@H]([C@H](C)C[C@@H]2CC[C@H](n3cnnn3)[C@H](OC)C2)CC(=O)[C@H](C)/C=C(\C)[C@@H](O)[C@@H](OC)C(=O)[C@H](C)C[C@H](C)/C=C/C=C/C=C/1C [ABT-578]
